*1 amine or outer side, *2 acyl side, *3 side chain or, on linkers, in order; H or OH if unused. Where a SMILES comes first, the peptide text is derived from it. Bridges are numbered along the chain shown (N, C = ends). Where no end group is shown, it is not given here. [ ]: non-standard residue; d: D form. The star is where a group is joined. DSS = disuccinimidyl suberate, reactive NHS group, O=C(CCCCCCC(=O)*)ON1C(=O)CCC1=O; Dolaproine = CO[C@@H]([C@@H]1CCCN1)[C@@H](C)C(=O)O; Hexanoyl(6-maleimido) = O=C1C=CC(=O)N1CCCCCC(=O)*; Biotin = O=C1N[C@H]2[C@H](CS[C@H]2CCCCC(=O)*)N1; Dil = CC[C@H](C)[C@H](NC)[C@@H](CC(=O)O)OC; PABC = O=C(OCc1ccc(N[*:1])cc1)[*:2]; X1 = C[C@@H](N*)[C@@H](O)c1ccccc1; PEG5 = NCCOCCOCCOCCOCCOCCC(=O)O; Cit = NC(=O)NCCC[C@H](N)C(=O)O; NMeV = CN[C@H](C(=O)O)C(C)C
Assays:
human IgG [1] = target: T1, human IgG (Homo sapiens, UniProt P01857); assay type: binding; conditions: SPR; peptides N-terminally blocked with biotinylated PEG4; NHS group hydrolysed
Protocol: 0.4 M EDC (1-ethyl-3-(3-dimethylaminopropyl)-carbodiimide) and 0.1 M sulfo-NHS (sulfo-N-hydroxysuccinimide) were mixed in equal amounts and then injected onto a CM5 sensor chip loaded in BIAcore T200 (GE Healthcare Japan Corp.) for 7 minutes at a flow rate of 10 μl/ml to activate the sensor chip. IgG was immobilized thereonto in an amount of 4000 to 5000 in terms of RU value under conditions of pH 4.0 (10 mM sodium acetate). While a HBS-EP buffer solution (0.01 M HEPES, 0.15 M NaCl, 0.005% TWEEN® 20, and 3 mM EDTA, pH 7.0) was used, binding reaction was monitored by the injection of the peptide at a concentration of 10 nM to 2 μM for 180 seconds at a flow rate of 50 μl/ml. Then, dissociation reaction was assayed by washing with a buffer solution for 600 seconds. Binding parameters were analyzed using BIAevalution T100 software.

SK-BR3 cells [2] = assay: Cell growth inhibition, Cell Counting Kit-8, 72 hours (Examples 11 and 12); assay type: cell-based; conditions: 0 to 500 nM
Protocol: After culture at 37° C. for 24 hours in a 5% CO2 incubator, 100 μL of a medium containing each concentration of the antibody-drug conjugate (ADC) prepared as described above was added to each well, and the cells were further cultured at 37° C. for 72 hours in a CO2 incubator. 10 μL of Cell Counting Kit-8 (Dojindo Laboratories) was added to each well. After incubation at 37° C. for 2 hours in a CO2 incubator, the absorbance at 450 nm was measured using a plate reader.
After culture at 37° C. for 24 hours in a 5% CO2 incubator, 100 μL of a medium containing each concentration of the antibody-drug conjugate (ADC) was added to each well, and the cells were further cultured at 37° C. for 72 hours in a CO2 incubator. 10 μL of Cell Counting Kit-8 (Dojindo Laboratories) was added to each well. After incubation at 37° C. for 2 hours in a CO2 incubator, the absorbance at 450 nm was measured using a plate reader.

human IgG Fc = target: T2, human IgG Fc (Homo sapiens, UniProt P01857); assay: Cross-linking reaction with Fc analyzed by ion-exchange chromatography (Examples 6 and 7); assay type: biochemical; conditions: for unreacted form (peak 2) produced: 15 minutes
T2 construct: human IgG (Chugai Pharmaceutical Co., Ltd.) Fc solution; purchased Chugai Pharmaceutical Co., Ltd
Protocol: The reaction was terminated by the addition of 10 μL of 1 M Tris-HCl (pH 7.0). 50 μL of the reaction product was injected to NGC Chromatography system (Bio-Rad Laboratories, Inc.) connected with Shodex IEC SP-825 column, followed by gradient elution from a 25 mM acetate buffer (pH 4.5) to a 25 mM acetate buffer (pH 4.5) containing 1 M NaCl. The protein elution was monitored on the basis of absorbance at 215 nm. Each obtained peak was separated and subjected to molecular weight measurement by LC/MS.
20 μL of the obtained fraction of the peak was injected to Shimadzu LCMS-8030 connected with Waters ACQUITY UPLC BEH C8 (1.7 μm, 2.1 mm×100 mm) column, followed by gradient elution from 4% acetonitrile containing 0.1% formic acid to 60% acetonitrile containing 0.1% formic acid. The eluted peaks were subjected to mass spectrometry, and the masses were calculated by deconvolution from polyvalent ion peaks using analytical software.
1.0 μL (molar ratio: 1.0) of the DSG-modified IgG-binding peptide (4 mM) dissolved in DMF, prepared in Example 5 was added to 200 μL of a human IgG Fc solution prepared at pH 4.0 (25 mM acetate buffer solution), pH 5.5 (25 mM acetate buffer solution), or pH 7.0 (PBS), and the mixture was rapidly stirred and then reacted at room temperature. 1, 5, 10, or 30 minutes after the start of the reaction, the reaction was terminated by the addition of 10 μL of 1 M Tris-HCl (pH 7.0). 50 μL of the reaction product was injected to NGC Chromatography system (Bio-Rad Laboratories, Inc.) connected with Shodex IEC SP-825 column, followed by gradient elution from a 25 mM acetate buffer (pH 4.5) to a 25 mM acetate buffer (pH 4.5) containing 1 M NaCl. The protein elution was monitored on the basis of absorbance at 215 nm. On the basis of the obtained chromatogram, the percentage of each peak was calculated.

4D5-Fc antibody = conditions: PE-labeled streptavidin; dead cells excluded by 7-AAD
Protocol: (§1) HEK293 cells were transfected with pcDNA3.1/Zeo(+) carrying scFv-Fc gene comprising anti-Her2 scFv (4D5) linked to Fc genes, using Lipofectamine 2000, and cultured for 5 days. […] The cells were washed once with PBS containing 3% BSA and suspended in 100 μL of PBS containing 3% BSA. […] The cells were washed once again with PBS containing 3% BSA and then dispersed in 100 μL of PBS containing 3% BSA.

human IgG [3] = target: human IgG (Homo sapiens, UniProt P01861); assay: Labeling of various IgG, SDS-PAGE and Western blot with HRP-labeled streptavidin (Example 13); conditions: human IgG4; antibody:peptide 1:4; 30 minutes
human IgG [4] = target: T1, human IgG; assay: as above; conditions: human monoclonal IgG1; antibody:peptide 1:4; 30 minutes
human IgG [5] = target: human IgG (Homo sapiens, UniProt P01859); assay: as above; conditions: human IgG2; antibody:peptide 1:4; 30 minutes
[6] = target: T3, rabbit IgG (polyclonal antibody) (Oryctolagus cuniculus, UniProt P01870); assay: as above; assay type: binding; conditions: antibody:peptide 1:4; 30 minutes
T3 construct: purchased Thermo Fisher Scientific Inc

SK-BR3 cells [7] = conditions: peptide plus SA-PE label only
Protocol: as §1

[8] = test system: hIgA, bovine gelatin, or BSA; assay: ELISA of reaction between labeled IgG-binding peptide and other plate proteins (Example 4); conditions: excess of labeled peptide reagent
Protocol: A 0.1 M NaHCO3 solution containing each protein (IgG (Chugai Pharmaceutical Co., Ltd.), IgA (Athens Research & Technology, Inc.), or bovine gelatin (Wako Pure Chemical Industries, Ltd.)) (50 ng (0.33 pmol)/μl/well) was added to wells of a 96-well microplate (Nunc® MaxiSorp), and the plate was left overnight at room temperature to adsorb each protein onto the surface of the plate. […] After a lapse of 1 hour, the reaction was terminated by the addition of 1 M Tris-HCl (pH 7.0) at 3 μL/well. SA-HRP (Vector Laboratories, Inc.) diluted 2000-fold with 0.5% BSA was added thereto at 50 μL/well and reacted at room temperature for 1 hour. Then, the plate was washed five times with 0.1% PBST. Then, a TMB solution (Wako Pure Chemical Industries, Ltd.) was used in the color development of HRP. After 5-minute chromogenic reaction, the absorbance at 450 nm was measured using an ELISA plate reader (model 680 microplate reader (Bio-Rad Laboratories, Inc.)).

hIgG = target: T4, hIgG (Homo sapiens, UniProt P01857); assay: ELISA of reaction between labeled IgG-binding peptide and plate-adsorbed IgG (Example 4)
T4 construct: purchased Chugai Pharmaceutical Co., Ltd
Protocol: The biotinylated IgG-binding peptide modified with DSG was added at a molar ratio of 2 to hIgG (50 ng) immobilized overnight at 4° C. with a 50 ng/50 μL solution. […] The binding was detected in the same way as in (A).

Chain of human IgG (Homo sapiens, UniProt P01861) (P01861 1-327 isoform P01861-1): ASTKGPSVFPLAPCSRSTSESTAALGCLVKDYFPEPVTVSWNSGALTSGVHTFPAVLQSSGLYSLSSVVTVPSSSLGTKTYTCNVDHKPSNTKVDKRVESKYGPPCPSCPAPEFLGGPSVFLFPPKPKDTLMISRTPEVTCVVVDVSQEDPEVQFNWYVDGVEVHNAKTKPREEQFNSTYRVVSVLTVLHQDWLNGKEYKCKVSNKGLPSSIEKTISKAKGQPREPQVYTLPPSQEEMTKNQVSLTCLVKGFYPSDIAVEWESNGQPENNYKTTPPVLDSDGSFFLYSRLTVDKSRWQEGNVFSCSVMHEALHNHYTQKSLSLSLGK
T3 sequence (P01870 whole entry): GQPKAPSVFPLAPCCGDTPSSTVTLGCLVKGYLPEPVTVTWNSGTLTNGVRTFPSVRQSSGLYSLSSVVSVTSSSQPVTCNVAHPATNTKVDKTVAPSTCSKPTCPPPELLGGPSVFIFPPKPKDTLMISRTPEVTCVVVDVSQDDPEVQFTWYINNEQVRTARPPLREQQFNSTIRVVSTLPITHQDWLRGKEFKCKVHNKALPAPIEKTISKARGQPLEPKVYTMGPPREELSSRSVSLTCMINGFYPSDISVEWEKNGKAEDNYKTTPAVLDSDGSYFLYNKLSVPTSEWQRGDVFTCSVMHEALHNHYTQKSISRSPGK
Chain of human IgG (Homo sapiens, UniProt P01859) (P01859 1-326 isoform P01859-1): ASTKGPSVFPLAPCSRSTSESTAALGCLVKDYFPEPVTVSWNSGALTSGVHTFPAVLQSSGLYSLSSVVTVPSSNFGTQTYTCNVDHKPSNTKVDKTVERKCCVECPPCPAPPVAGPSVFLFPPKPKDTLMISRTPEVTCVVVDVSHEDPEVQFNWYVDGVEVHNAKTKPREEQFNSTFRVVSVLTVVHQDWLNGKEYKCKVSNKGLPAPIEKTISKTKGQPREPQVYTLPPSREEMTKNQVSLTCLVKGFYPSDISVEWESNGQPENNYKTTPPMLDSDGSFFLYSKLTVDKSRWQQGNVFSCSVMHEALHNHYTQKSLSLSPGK

CC(C)C[C@@H]1NC(=O)[C@H](CCC(=O)O)NC(=O)CNC(=O)[C@H](CCCNC(=N)N)NC(=O)[C@H](Cc2c[nH]cn2)NC(=O)[C@H](Cc2ccc(O)cc2)NC(=O)[C@H](C)NC(=O)[C@@H](NC(=O)[C@H](CC(=O)O)NC(=O)[C@@H]2CCCN2C(=O)CNC(=O)CCOCCOCCOCCOCCOCCNC(=O)CCCC[C@@H]2SC[C@@H]3NC(=O)N[C@@H]32)CSSC[C@@H](C(=O)N[C@H](C(=O)N[C@@H](Cc2ccccc2)C(=O)N[C@@H](Cc2c[nH]cn2)C(N)=O)[C@@H](C)O)NC(=O)[C@H](Cc2c[nH]c3ccccc23)NC(=O)[C@H](C(C)C)NC1=O [Type I] ({Biotin-PEG5}-GPDCAYHRGELVWCTFH-NH2; disulfide 4-14)
ka (human IgG [1]): 1.57E+06 | kd (human IgG [1]): 0.0144

CC[C@H](C)[C@@H]([C@@H](CC(=O)N1CCC[C@H]1[C@H](OC)[C@@H](C)C(=O)N[C@H](C)[C@@H](O)c1ccccc1)OC)N(C)C(=O)[C@@H](NC(=O)[C@H](C(C)C)N(C)C(=O)OCc1ccc(NC(=O)[C@H](CCCNC(N)=O)NC(=O)[C@@H](NC(=O)CCCCCN2C(=O)C=CC2=O)C(C)C)cc1)C(C)C [VcMMAE, maleimidocaproyl-valine-citrulline-p-aminobenzoyloxycarbonyl-monomethyl auristatin E] ({Hexanoyl(6-maleimido)}-V[Cit][PABC][NMeV]V[Dil][Dolaproine]-X1)
concentration giving cell growth inhibition (SK-BR3 cells [2]): ≥ 250 nM

Biotin-PEG4-RGNCAYHXGQLVWCTYH-NH2 [DSG-modified IgG-binding peptide]
Fc with a larger number of peptides than two added (human IgG Fc; excessive molar ratio 1:5, pH 4.5): not detected | unreacted form (peak 2) produced (human IgG Fc; molar ratio 1:1, pH 4.5, room temperature): ≤ 20% | unreacted form (peak 2) produced (human IgG Fc; molar ratio 1:2, pH 4.5, room temperature): ≤ 10% | yield of the adduct of two peptides (peak 4) (human IgG Fc; other pH cases (pH 5.5, pH 7.0), molar ratio 1.0): 35-40% | part of the reaction completed within 1 minute (human IgG Fc; pH 4.0, pH 5.5 and pH 7.0, molar ratio 1.0, room temperature): ≥ 90% | amount of the unreacted form remaining (human IgG Fc; pH 4.0, molar ratio 1.0): exceeded 40% | yield of the adduct of two peptides (peak 4) (human IgG Fc; pH 4.0, molar ratio 1.0): approximately 15% | yield of the unreacted form (human IgG Fc; pH 5.5 and 7.0, molar ratio 1.0): ~10% | fluorescence intensity compared with biotinylated anti-human IgG mouse antibody (4D5-Fc antibody): rarely differed in fluorescence intensity | labeling of human IgG4 (band in Western blot) (human IgG [3]): dark bands | labeling of human IgG1 (band in Western blot) (human IgG [4]): dark bands | labeling of human IgG2 (band in Western blot) (human IgG [5]): dark bands | labeling of rabbit polyclonal IgG (staining in Western blot) [6]: strongly stained | shift in fluorescence intensity without 4D5-Fc (SK-BR3 cells [7]): no shift in fluorescence intensity

labeled IgG-binding peptide modified with DSS: biotinylated IgG-binding (R8K) peptide modified with cross-linking agent, prepared as in Example 2 (GDDCAYHK(DSS)GELVWCTFH-NH2; not fully specified (N-terminus); cysteine pairing not given here; also: biotinylated)
binding to other proteins [8]: not detected | reaction time at which saturation was seen (hIgG; IgG and peptide at molar ratio 1:2): approximately 15 minutes | molar ratio at which saturation was seen (hIgG; molar ratios 1 to 10, 1 hour): approximately 5

Reference: patent USRE50282E1, “Specific modification of antibody with IgG-binding peptide” (KAGOSHIMA UNIVERSITY, priority 2015, dated 2025)
